Measured values taken from patent US8207135B2, “Compositions for and methods of enhancing the immune response to antigens” (Wittycell, priority 2007, dated 2012).

What was measured:
[1] = test system: Ova-specific target cells; assay: in vivo cytotoxic specific cell lysis assay (CD8+ T cell response) in immunized mice; set-up: species or system mouse; settings: for average Ova-specific cytotoxic response: Example 2, FIG. 2; for average Ova-specific cytotoxic response / average Ova-specific cell lysis / specific lysis of Ova-specific target cells in blood: IV; for average Ova-specific cytotoxic response / average OVA-specific cytotoxic response: 400 μg Ova with or without 1 μg adjuvant; for average Ova-specific cytotoxic response / average OVA-specific cytotoxic response / average Ova-specific cell lysis: day 11 blood; for average OVA-specific cytotoxic response: Example 2, FIG. 3, IM; for average Ova-specific cell lysis: Example 4, FIG. 6, 400 μg Ova with or without 1 μg adjuvant (PBS-57 new formulation); for percentage of specific lysis of the target cells by CD8+ T cells: Example 5 Experiment B, FIG. 8, 50 μg OVA with 10 ng adjuvant intramuscularly; for specific lysis of Ova-specific target cells in blood: Example 1, FIG. 1, 1 μg adjuvant with 50 μg Ova, day 11
IFNγ = assay: in vivo IFNγ release in sera by ELISA 24 hours after inoculation; set-up: species or system C57BL/6 mice; settings: Quantikine kit, FIG. 4
Protocol: To test the ability of the adjuvant test compounds to stimulate in vivo cytokine release, C57BL/6 mice were administered the compounds at different concentrations intravenously and the production of IFNγ in sera was measured 24 hours later by ELISA. Groups of 3 mice were inoculated intravenously (tail vein) on day 0 as follows: • Group 1: 100 μl of PBS alone • Group 2: 1 μg of αGalCer in 100 μl of PBS • Group 3: 100 ng of αGalCer in 100 μl of PBS • Group 4: 1 ng of αGalCer in 100 μl of PBS • Group 5: 0.1 ng of αGalCer in 100 μl of PBS • Group 6: 100 ng of αGalCer and 100 μg of Ova in 100 μl of PBS • Group 7: 1 μg of PBS-57 in 100 μl of PBS • Group 8: 100 ng of PBS-57 in 100 μl of PBS • Group 9: 1 ng of PBS-57 in 100 μl of PBS • Group 10: 0.1 ng of PBS-57 in 100 μl of PBS • Group 11: 100 ng of PBS-57 and 400 μg of Ova into 100 μl of PBS • Group 12: 1 μg of PBS-14 in 100 μl of PBS • Group 13: 100 ng of PBS-14 in 100 μl of PBS • Group 14: 1 ng of PBS-14 in 100 μl of PBS • Group 15: 0.1 ng of PBS-14 in 100 μl of PBS • Group 16: 100 ng of PBS-14 and 400 μg of Ova in 100 μl of PBS • Group 17: 1 μg of PBS-96 in 100 μl of PBS • Group 18: 100 ng of PBS-96 in 100 μl of PBS • Group 19: 1 ng of PBS-96 in 100 μl of PBS • Group 20: 0.1 ng of PBS-96 in 100 μl of PBS • Group 21: 100 ng of PBS-96 and 400 μg of Ova in 100 μl of PBS. 24 hours after inoculation, blood samples were collected from the mice and IFNγ levels were detected by ELISA kit. Two ELISA kits were used, Quantikine mouse IFNγ (RD systems) was used to test all samples and ELISA mIFNγ (Diaclone) was used to test group 1, 2, 3, 6, 7, 8, 11, 12, 13, 16, 17, 18 and 21. All sera were diluted before use in ELISA as follows:
Results are expressed as IFNγ concentration (pg/ml) in sera and take into account the dilution factor. FIG. 4 depicts results using the Quantikine mouse IFNγ kit by RD systems. FIG. 4A depicts results of IFNγ levels for mice immunized with PBS-57, FIG. 4B depicts results of IFNγ levels for mice immunized with PBS-14, FIG. 4C depicts results of IFNγ levels for mice immunized with PBS-96 and FIG. 4D depicts results of IFNγ levels for mice immunized with αGalCer. At 0.1 ng, all adjuvant candidates induce cytokine release, but mice immunized with αGalCer produced three- or four-fold less IFNγ than mice immunized with PBS-57, PBS-14 or PBS-96 (1540.57±397.53 pg/ml, 4398.05±880.86 pg/ml, 6669.31±1231.82 pg/ml, 5823.33±720.69 pg/ml respectively).
Another set of mice were used to compare the ability of adjuvant compounds to stimulate in vivo cytokine release by the method described above. Five groups of C57BL/6 mice were administered 100 ng of PBS-57, PBS-14, PBS-96, or PBS-11 in 100 μl PBS or 100 μl PBS alone intravenously. The production of IFNγ in sera was measured 24 hours later by ELISA. FIG. 5 depicts results for mice immunized with 100 ng of PBS-11, PBS-96, PBS-14 and PBS-57.

[2] = test system: CD8+ T cells responsive to OVA; assay: SIINFEKL pentamer assay of OVA-specific CD8+ T cells (FACS); assay type: in vivo, mouse; settings: IM, days 0 and 14, blood day 21
Protocol: To verify the results obtained using the in vivo cytotoxicity assay described in the Examples above, similar experiments were performed and CD8+ T cell activation was determined by measuring the percentage of OVA-specific CD8+ T cells using a pentamer assay. Briefly, mice were injected intramuscularly with the indicated amounts of OVA and test adjuvant compound at either 1 μg or 100 ng per mouse, respectively on day 0 as follows:
Experiment A: • Group 1: 100 μl of PBS; • Group 2: 50 μg of Ova into 100 μl PBS; • Group 3: 50 μg of Ova with 1 μg αGalCer; • Group 4: 50 μg of Ova with 1 μg PBS-11 • Group 5: 50 μg of Ova with 1 μg PBS-14 • Group 6: 50 μg of Ova with 1 μg PBS-57 • Group 7: 50 μg of Ova with 1 μg PBS-96
Experiment B: • Group 1: 100 μl of PBS; • Group 2: 50 μg of Ova into 100 μl PBS; • Group 3: 50 μg of Ova with 100 ng αGalCer; • Group 4: 50 μg of Ova with 100 ng PBS-11 • Group 5: 50 μg of Ova with 100 ng PBS-14 • Group 6: 50 μg of Ova with 100 ng PBS-57 • Group 7: 50 μg of Ova with 100 ng PBS-96 A second injection was administered to the mice on day 14 and blood was collected from the mice on day 21. The lymphocytes were collected and analyzed by FACS analysis using H-2 K^b SIINFEKL pentamer and CD8 antibody to detect CD8+ T cells responsive to OVA.

OVA-specific IgG1 = OVA-specific IgG1 ELISA after intramuscular immunization; assay type: in vivo, mouse; settings: FIG. 11; IM, 50 μg OVA with 100 ng adjuvant, 14 days post-injection
Protocol: (§1) Mice (6 per group) were injected intramuscularly with 50 μg of OVA either alone or in combination with 100 ng of the indicated adjuvants (Freund's adjuvant was used as a positive control) as follows: • Group 1: […] of Ova with CFA/IFA (Positive control) • Group 2: 50 μg of Ova • Group 3: 50 μg of Ova and 100 ng of αGalCer • Group 4: 50 μg of Ova and 100 ng of PBS-11 • Group 5: 50 μg of Ova and 100 ng of PBS-14 • Group 6: 50 μg of Ova and 100 ng of PBS-57 • Group 7: 50 μg of Ova and 100 ng of PBS-96 At 14 days post-injection, blood samples were collected and ELISAs for IgG1 and IgG2a were performed using mouse monoclonal antibodies specific for OVA isotype IgG1 or IgG2a. The results are shown as the titer of the antibody in peripheral blood in ng/ml. The results for IgG1 are depicted in FIG. 11 and those for IgG2a are depicted in FIG. 12.

OVA specific IgG2a = assay: OVA-specific IgG2a ELISA after intramuscular immunization; assay type: in vivo, mouse; settings: FIG. 12; IM, 50 μg OVA with 100 ng adjuvant, 14 days post-injection
Protocol: as §1

[3] = Example 6 Experiment A, FIG. 9, 50 μg Ova with 1 μg adjuvant

With CCCCCCCC/C=C\CCCCCCCCCCCCCC(=O)N[C@@H](CO[C@H]1O[C@H](CNC(C)=O)[C@H](O)[C@H](O)[C@H]1O)[C@H](O)[C@H](O)CCCCCCCCCCCCCC [PBS-57, reference compound] the “average Ova-specific cytotoxic response” value [1] was 88.1±6.2%, the “average OVA-specific cytotoxic response” value [1] was 56.11±13.34% and the “average Ova-specific cell lysis” value [1] was 88.1±6.2%. For the same molecule, the “percentage of specific lysis of the target cells by CD8+ T cells” value (“percentage … by CD8+ T cells” for short) [1] was “indistinguishable from the controls”, the “IFNγ concentration in sera” value (IFNγ; 0.1 ng IV) was 4398.05 ± 880.86 pg/mL and the “IFNγ concentration in sera” value (IFNγ; 1 ng IV) was 11425.98 ± 833.04 pg/mL. For the same molecule, the “IFNγ concentration in sera” value (IFNγ; 100 ng IV) was 21432.76 ± 4312.76 pg/mL, the “IFNγ concentration in sera” value (IFNγ; 1 μg IV) was 3353.45 ± 867.57 pg/mL and the “percentage of OVA specific CD8+ T cells” value [2, 3] was “enhanced the percentage of OVA specific CD8+ T cells”. For the same molecule, the “OVA-specific IgG1 titer in peripheral blood” value (OVA-specific IgG1) was “able to elicit a robust IgG1 titer”.

With CCCCCCCCCCCCCCCCCCCCCCCC(=O)N[C@@H](CO[C@H]1O[C@H](CNC(C)=O)[C@H](O)[C@H](O)[C@H]1O)[C@H](O)[C@H](O)CCCCCCCCCCCCCC [PBS-96] the “specific lysis of Ova-specific target cells in blood” value [1] was “resulted in cytotoxic lysis of Ova-specific target cells”, the “average Ova-specific cytotoxic response” value [1] was 89.2±10.3% and the “average OVA-specific cytotoxic response” value [1] was 50.29±42.6%. For the same molecule, the “average Ova-specific cell lysis” value [1] was 89.2±10.3%, the “enhancement of the CD8+ T cell response (specific lysis) at low doses” value ([1]; Example 5 Experiments A and B, FIGS. 7 and 8, 50 μg OVA with 100 ng or 10 ng adjuvant intramuscularly) was “unexpectedly better than other adjuvants” and the “IFNγ concentration in sera” value (IFNγ; 0.1 ng IV) was 5823.33 ± 720.69 pg/mL. The “IFNγ concentration in sera” value (IFNγ; 1 ng IV) was 6271.95 ± 3737.53 pg/mL, the “IFNγ concentration in sera” value (IFNγ; 100 ng IV) was 19679.89 ± 1443.48 pg/mL and the “IFNγ concentration in sera” value (IFNγ; 1 μg IV) was 17720.11 ± 2869.97 pg/mL. The “percentage of OVA specific CD8+ T cells” value [2, 3] was “enhanced the percentage of OVA specific CD8+ T cells”, the “percentage of OVA specific CD8+ T cells” value ([2]; Example 6 Experiment B, FIG. 10, 50 μg Ova with 100 ng adjuvant) was “surprisingly much better at enhancing the CD8+ T cell response” and the “OVA-specific IgG1 titer in peripheral blood” value (OVA-specific IgG1) was “able to elicit a robust IgG1 titer”. For the same molecule, the “OVA specific IgG2a titer in peripheral blood” value (OVA specific IgG2a) was “about as well as Freund's adjuvant”.

With CCCCCCCCCCCCCCCCCCCCCCCCCC(=O)N[C@@H](CO[C@H]1O[C@H](CNC(=O)CCCC[C@@H]2SC[C@@H]3NC(=O)N[C@@H]32)[C@H](O)[C@H](O)[C@H]1O)[C@H](O)[C@H](O)CCCCCCCCCCCCCC [PBS-11, reference compound] the “specific lysis of Ova-specific target cells in blood” value [1] was “did not result in specific lysis of cells”, the “average Ova-specific cell lysis” value [1] was 32.3±2.5% and the “percentage … by CD8+ T cells” value [1] was “indistinguishable from the controls”. The “percentage of OVA specific CD8+ T cells” value [2, 3] was “not as effective”.

CCCCCCCCCCCCCCCCCCCCCCCCCC(=O)N[C@@H](CO[C@H]1O[C@H](CO)[C@H](O)[C@H](O)[C@H]1O)[C@H](O)[C@H](O)CCCCCCCCCCCCCC [αGalCer, α-galactosyceramide, reference compound] was tested, and the “average Ova-specific cytotoxic response” value [1] was 79.9±0.8%, the “average OVA-specific cytotoxic response” value [1] was −5.85±11.01% and the “percentage … by CD8+ T cells” value [1] was “indistinguishable from the controls”. The “IFNγ concentration in sera” value (IFNγ; 0.1 ng IV) was 1540.57 ± 397.53 pg/mL, the “IFNγ concentration in sera” value (IFNγ; 1 ng IV) was 3802.99 ± 586.02 pg/mL and the “IFNγ concentration in sera” value (IFNγ; 100 ng IV) was 7714.37 ± 3529.07 pg/mL. For the same molecule, the “percentage of OVA specific CD8+ T cells” value [2, 3] was “not as effective”.

B1: ovalbumin (protein, UniProt P01012 2-386, looked up)
Ovalbumin: GSIGAASMEFCFDVFKELKVHHANENIFYCPIAIMSALAMVYLGAKDSTRTQINKVVRFDKLPGFGDSIEAQCGTSVNVHSSLRDILNQITKPNDVYSFSLASRLYAEERYPILPEYLQCVKELYRGGLEPINFQTAADQARELINSWVESQTNGIIRNVLQPSSVDSQTAMVLVNAIVFKGLWEKAFKDEDTQAMPFRVTEQESKPVQMMYQIGLFRVASMASEKMKILELPFASGTMSMLVLLPDEVSGLEQLESIINFEKLTEWTSSNVMEERKIKVYLPRMKMEEKYNLTSVLMAMGITDVFSSSANLSGISSAESLKISQAVHAAHAEINEAGREVVGSAEAGVDAASVSEEFRADHPFLFCIKHIATNAVLFFGRCVSP
notes: nominal antigen, Ovalbumin grade VII, Sigma
For B1, the “average Ova-specific cytotoxic response” value [1] was 11.8±14.4%, the “average OVA-specific cytotoxic response” value [1] was 1.60±14.33% and the “average Ova-specific cell lysis” value [1] was 11.8±14.4%.
